{"source": "patent EP3876933B1", "about": "“NEUTROPHIL INFLAMMATION INHIBITOR AND USES THEREOF” (Chang Gung University of Science and Technology, priority 2018, dated 2020)", "key": {"[1]": {"test_system": "imiquimod-induced psoriasis", "assay": "Imiquimod-induced psoriasis-like skin inflammation in mice (phenotype, H&E, immunohistochemistry)", "assay_type": "in vivo, BALB/c mice", "details": "20 mg/kg intraperitoneal, 30 min before 5% IMQ cream, every day for 7 days", "description": "(§1) Male BALB/c mice aged 7-8 weeks were purchased from BioLASCO (Taipei, Taiwan) and maintained in a room with 12 hr light/dark cycles. Standard laboratory chow and water were available ad libitum. All animal experimental procedures were performed in accordance with guidelines and approved by the Institutional Animal Care and Use Committee of Chang Gung University.\n(§2) Male BALB/c mice aged 7-8 weeks were used for the development of the imiquimod-induced psoriatic-like plaque model. The dorsal skin of the mice were shaved and received a daily topical dose of 62.5 mg of 5% imiquimod (IMQ) cream (Aldara, MEDA Pharma, Sweden) with or without a test compound (e.g., HKI-4971) treatment by intraperitoneal injection for 7 consecutive days.\nTissue samples were fixed in 10% neutral buffered formalin and embedding in paraffin blocks. Sections of the samples were prepared at 5 µm thickness and stained with hematoxylin and eosin (H&E). For immunohistochemistry staining, the sections were incubated with primary antibodies against Ly6g, MPO, and ki67 then the secondary antibody was applied for the detection of the primary antibody according to the manufacturer's instructions of the SuperPicture Polymer Detection Kit (Thermo Fisher, USA). Finally, the section slides were subsequently stained with DAB chromogen and counterstained with hematoxylin. […]"}, "human neutrophils [2]": {"test_system": "human neutrophils", "assay": "Superoxide anion (O2˙-) generation in fMLF/CB-activated human neutrophils (SOD-inhibitable ferricytochrome c reduction)", "assay_type": "cell-based", "details": "Neutrophil", "description": "(§3) Human neutrophils were obtained in lipopolysaccharide-free conditions by means of dextran sedimentation and Ficoll centrifugation.\nO2˙^- production was determined based on the SOD-inhibitable reduction of ferricytochrome c. Briefly, neutrophils (6 × 10^5/mL) were treated with a candidate compound at 37 °C at various concentrations (0.001 to 10 µM) for 5 min after being supplementing with 0.5 mg/mL ferricytochrome c and 1 mM Ca^2+. Cells were then activated with fMLF (0.1 µM) for 10 min in the pre-process of cytochalasin B (CB, 1 µg/mL) for 3 min. Changes in absorbance with the reduction of ferricytochrome c at 550 nm were continuously monitored in a double-beam, six-cell positioner spectrophotometer with constant stirring (Hitachi U-3010, Tokyo, Japan). Calculations were based on the differences in the reactions with and without SOD (100 U ml^-1) divided by the extinction coefficient for the reduction of ferricytochrome c (ε = 21.1 mM^-1/10 mm)."}, "[3]": {"assay": "Liver and kidney function (blood ALT, AST, BUN, creatinine) in imiquimod-induced mice", "assay_type": "in vivo, BALB/c mice", "details": "HKI-4971 20 mg/kg intraperitoneal, alone or in combination with IMQ; n=3", "description": "as §2\nIn this example, the effect of HKI-4971 (or compound 13) on the development of psoriasis was investigated using the well-established psoriasis animal model, in which imiquimod (IMQ) was used to induce psoriasis-like skin inflammation. Briefly, BALB/c mice are pre-treated by intraperitoneal injection of HKI-4971 (20 mg/kg) for 30 min before 5% IMQ cream was topically administered onto the back of the mice every day for 7 days. Then, skin samples taken from these animals were subjected to microscopy examination and immunohistochemistry staining, while blood samples were subjected to analysis for liver and kidney functions. Results are depicted in FIGs 1 to 3.\nBlood samples taken from IMQ- or IMQ+HKI-4971 treated animals were analyzed for the levels of alanine aminotransferase and aspartate transaminase, which were used as indicators for assessing liver function; and the levels of blood […] nitrogen (BUN) and creatinine (CRE), which were used as indicators for assessing the kidney function. […]"}, "human neutrophils [4]": {"test_system": "human neutrophils", "assay": "Elastase release in fMLF/CB-activated human neutrophils (Methoxysuccinyl-Ala-Ala-Pro-Val-p-nitroanilide substrate)", "assay_type": "cell-based", "details": "Neutrophil", "description": "as §3\nMethoxysuccinyl-Ala-Ala-Pro-Val-p-nitroanilide was employed as the elastase substrate for the determination of elastase release. Briefly, after supplementation with Methoxysuccinyl-Ala-Ala-Pro-Val-p-nitroanilide (100 µM), neutrophils (6 × 10^5/mL) were equilibrated at 37 °C for 2 min and incubated with a candidate compound at various concentrations for 5 min. Cells were then activated with fMLF (0.1 µM) for 10 min in the pre-process of CB (0.5 µg/mL) for 3 min, and changes in absorbance at 405 nm were continuously monitored to evaluate elastase release. Results are expressed as the percentage of elastase release in the drug-free control group, DMSO."}, "LPS-induced ALI": {"test_system": "LPS-induced ALI", "assay": "LPS-induced acute lung injury (ALI) in mice (lung MPO activity, H&E, immunohistochemistry)", "assay_type": "in vivo, BALB/c mice", "details": "20 mg/Kg intravenous 1 hr before intratracheal LPS (2 mg/Kg), 5 hrs", "description": "as §1\nMice were pre-treated with a candidate compound (e.g., HKI-4971), which was dissolved in 50 µl saline solution containing 10% DMSO and 20% Kolliphor EL (Sigma-Aldrich, USA), by intravenous injection. […]\nLung tissues were homogenized in PBS (50 Mm, pH 6.0) containing 0.5% (w/v) hexadecyltrimethylammonium bromide (HETAB) (Sigma-Aldrich, USA) by using the MagNA Lyser Instrument (Roche, Germany), and was further centrifuged at 12,000 ×g for 20 min at 4°C to remove the insoluble material. The peroxidase activity was measured as the oxidation of o-Dianisidine dihydrochloride (Sigma-Aldrich, USA). […] The absorption was determined spectrophotometrically at 405 nm. […]\nIn this example, the Gram-negative bacterial endotoxin LPS induced ALI in mice was employed to mimic ARDS in human, and the effect of HKI-4971 was evaluated. […]"}, "[5]": {"details": "at 10 µM concentration, FMLP/CB-induced human neutrophils, mean ± S.E.M. (n = 3-5)"}}}
{"smiles": "Cn1nc(N)c2c(Nc3ccc(O)cc3)nc3ccccc3c21", "note": "[Compound 13, 4-(4-Hydroxyanilino)-1-methyl-1H-pyrazolo[4,3-c]quinolin-3-amine]", "values": [{"measurement": "markers for cell proliferation (ki-67) and for neutrophils (Ly6g and MPO), immunostaining of skin samples", "setting": "[1]", "result": "reduced"}, {"measurement": "severity or progression of IMQ-induced psoriasis", "setting": "[1]", "result": "reduce the severity or progression"}, {"measurement": "IC50", "setting": "human neutrophils [2]; Homo sapiens, neutrophils in response to fMLF, Table 2, read-out: IC50 for suppressing the superoxide anion generation", "result": "~3.7", "unit": "nM"}, {"measurement": "IC50", "setting": "human neutrophils [2]; FMLP/CB-induced human neutrophils, mean ± S.E.M. (n = 3-5), read-out: Superoxide Anion IC50", "result": "3.69 ± 1.74", "unit": "nM"}, {"measurement": "inhibition at 10 µM", "setting": "human neutrophils [2]; [5]", "result": "88.1 ± 1.19", "unit": "%"}, {"measurement": "functions of liver or kidney (alanine aminotransferase, aspartate transaminase, BUN, CRE in blood)", "setting": "[3]", "result": "did not result in significant damage"}, {"measurement": "IC50", "setting": "human neutrophils [4]; Homo sapiens, neutrophils in response to fMLF, Table 2, read-out: IC50 for suppressing elastase release", "result": "~32", "unit": "nM"}, {"measurement": "IC50", "setting": "human neutrophils [4]; FMLP/CB-induced human neutrophils, mean ± S.E.M. (n = 3-5), read-out: Elastase Release IC50", "result": "32.1 ± 17.4", "unit": "nM"}, {"measurement": "inhibition at 10 µM", "setting": "human neutrophils [4]; [5]", "result": "105 ± 2.53", "unit": "%"}, {"measurement": "LPS-induced neutrophil infiltration and lung injury (H&E and neutrophil markers in lung sections)", "setting": "LPS-induced ALI", "result": "significantly alleviated"}, {"measurement": "MPO activity in lung tissues", "setting": "LPS-induced ALI; n=3", "result": "suppressed"}]}
